Measurements taken from BindingDB's records for doi:10.1016/S0960-894X(97)10016-6 (1997).

Target: T1, Progesterone receptor (Oryctolagus cuniculus, UniProt P06186)
T1 sequence (P06186 whole entry): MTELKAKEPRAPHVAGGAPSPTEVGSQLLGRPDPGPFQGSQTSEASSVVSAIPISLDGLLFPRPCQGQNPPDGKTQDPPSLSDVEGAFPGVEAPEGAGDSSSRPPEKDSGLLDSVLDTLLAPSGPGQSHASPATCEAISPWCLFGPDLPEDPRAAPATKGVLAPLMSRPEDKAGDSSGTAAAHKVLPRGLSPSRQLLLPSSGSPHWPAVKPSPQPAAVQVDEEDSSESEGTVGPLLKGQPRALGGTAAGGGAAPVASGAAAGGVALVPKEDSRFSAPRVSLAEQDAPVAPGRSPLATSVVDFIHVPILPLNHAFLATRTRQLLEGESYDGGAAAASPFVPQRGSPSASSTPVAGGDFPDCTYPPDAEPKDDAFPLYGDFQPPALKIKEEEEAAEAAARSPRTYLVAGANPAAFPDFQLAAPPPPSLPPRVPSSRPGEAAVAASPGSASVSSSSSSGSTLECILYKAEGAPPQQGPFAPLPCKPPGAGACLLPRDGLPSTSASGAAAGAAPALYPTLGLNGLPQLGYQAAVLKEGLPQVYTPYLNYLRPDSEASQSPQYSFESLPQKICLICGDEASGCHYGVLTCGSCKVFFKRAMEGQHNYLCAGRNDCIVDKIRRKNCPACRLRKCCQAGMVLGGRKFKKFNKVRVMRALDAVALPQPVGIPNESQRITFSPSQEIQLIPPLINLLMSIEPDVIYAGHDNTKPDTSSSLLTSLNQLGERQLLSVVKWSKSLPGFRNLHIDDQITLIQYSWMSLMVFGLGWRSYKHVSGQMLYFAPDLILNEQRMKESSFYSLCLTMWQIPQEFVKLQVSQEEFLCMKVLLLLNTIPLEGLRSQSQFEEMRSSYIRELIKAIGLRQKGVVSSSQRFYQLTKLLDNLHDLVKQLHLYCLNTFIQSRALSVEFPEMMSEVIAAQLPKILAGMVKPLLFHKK
Experiment: ChEBML_159701
Text: Binding affinity determined by ability to displace [3H]R5020 radioligand using uterine progesterone receptor obtained from estrogen-primed rabbit

IC50 | SMILES
> 10 µM | O=C(NNCC1=NN(c2ccc(F)cc2)C2C(Cc3cccc4ccccc34)CCCC12)c1ccccc1 (configuration not stated)
> 10 µM | O=S(=O)(NNCC1=NN(c2ccc(F)cc2)C2C(Cc3cccc4ccccc34)CCCC12)c1ccccc1 (configuration not stated) [1-(4-Fluoro-phenyl)-3-(N'-[(E)-methylene]benzenesulfonohydrazide)-7-naphthalen-1-ylmethyl-octahydro-indazole]
